Data set [1] has as its system A549-xenografted tumors. In words: A549 xenograft nude mouse model. To be noted: cisplatin 5 mg/kg intravenous.
Experimental: The body weights of mice and their tumor sizes were measured twice a week. Cisplatin was used as internal control.
The four-week-old female Balb/c nu/nu mice were bought from Orient Bio (Sungnam, Republic of Korea) and maintained for two weeks at 25 ± 2 °C in 50 ± 5% relative humidity with 12 h dark/light cycles. Then, 5 × 10^6 A546 human lung cancer cells mixed with Matrigel were injected subcutaneously into the right dorsal area. […] The body weights and tumor sizes of the mice were measured twice a week for five weeks. […] The tumor volume in each mouse was determined using the following formula: tumor volume (mm^3) = length × width^2 × 0.5.
The subject of data set [2] is cancer and normal cells. The data set is described as follows: AV/PI flow cytometric analysis, positive control. The conditions noted are these: 24 h, AV/PI staining. Type of data set: cell-based, human. How it is done: 5 × 10^5/well cells were plated into 6-well plates and incubated at 37 °C with 5% CO2 for 24 h to allow adhesion. […] The conditioned medium was collected into a 15 mL conical tube to retrieve the floating cells, while adherent cells were detached using trypsin. The floating cells in the collected medium were combined with the detached adherent cells and centrifuged for 2 min at 3000 rpm at 4 °C to collect the cells. The cell pellet was resuspended using 1x binding buffer containing AV and PI and incubated for 30 min at 37 °C. The cells were analyzed using a CytoFLEX Flow Cytometer (Beckman Coulter, Brea, CA, USA).

For data set [3], the system named is Caco-2 cells. The data set is described as follows: MTT cell viability assay. To be noted: Caco-2, 24 h treatment, absorbance 530 nm. How it is done:
(§1) Then, the cells were further incubated for 4 h in the dark after adding MTT reagent. After incubation, formed formazan crystal was dissolved. The absorbance of the solubilized formazan was measured at 530 nm to determine cell viability of each AMP.
(§2) A549 human lung cancer cells, MDA-MB-231 triple-negative human breast cancer cells, HT-29 human colorectal adenocarcinoma, Panc-1 human pancreatic cancer cell line, and Caco2 human epithelial cell line were purchased from the Korean Cell Line Bank (Seoul, Republic of Korea). HaCaT human keratinocytes were gifted by Professor Su-Kyung Kim (Department of Pharmacology, Keimyung University School of Medicine). The cells were routinely grown in Dulbecco’s Modified Eagle Medium supplemented with 10% fetal bovine serum and 1% antimycotic/antibiotic solution at 37 °C in an atmosphere containing 5% CO2.
(§3) 1 × 10^4 cells were seeded into each well in a 96-well plate and attached for 24 h at 37 °C. […] The medium was removed, and the cells were incubated for 4 h in the dark after adding 50 μL of MTT reagent (Sigma-Aldrich; Merck KGaA, Darmstadt, Germany) in an each well.
A general note: Tetrazolium dyes change colour on reduction, which living cells bring about.

Data set [4] relates to HaCaT cells. In words: MTT cell viability assay. The conditions noted are these: 24 h treatment, absorbance 530 nm. How it is done: as §1, §2, §3
For data set [5], the system named is human red blood cells (RBCs). In words: Hemolysis assay. The class given is cell-based. The conditions noted are these: human RBCs in PBS, 37 °C, 1 h, absorbance 405 nm, relative to 1% Triton X-100. The procedure:
This study was approved by the Institutional Review Board of Dongguk University (No.: DGU IRB 20200007-01). RBCs were prepared from human blood obtained from the Korean Red Cross by centrifugation at 2000 rpm for 30 min at 10 °C, followed by pellet collection. RBC pellets were washed by resuspending in phosphate-buffered saline (PBS) and centrifugation at 2000 rpm for 30 min at 10 °C thrice. Subsequently, RBCs were resuspended in PBS and 50 μL/well of RBC solution was loaded into a 96-well plate. […] Finally, the absorbance of the supernatant was measured at 405 nm using an Epoch ELISA Reader. […] All the absorbance values were normalized to those of PBS.

Consider `N.N.[Cl][Pt][Cl]` [cisplatin], for which the body weight result in data set [1] is “significant body weight loss”. Moreover, the tumor growth result in data set [1] (twice in the first week, start at about 400 mm^3) is “effectively suppressed”.
In the case of `CC[C@H](C)[C@H](NC(=O)CN)C(=O)NCC(=O)N[C@@H](C)C(=O)N[C@H](C(=O)N[C@@H](CC(C)C)C(=O)N[C@@H](CCCCN)C(=O)N[C@H](C(=O)N[C@@H](CC(C)C)C(=O)N[C@H](C(=O)N[C@H](C(=O)NCC(=O)N[C@@H](CC(C)C)C(=O)N1CCC[C@H]1C(=O)N[C@@H](C)C(=O)N[C@@H](CC(C)C)C(=O)N[C@H](C(=O)N[C@@H](CO)C(=O)N[C@@H](Cc1c[nH]c2ccccc12)C(=O)N[C@H](C(=O)N[C@@H](CCCCN)C(=O)N[C@@H](CCCNC(=N)N)C(=O)N[C@@H](CCCCN)C(=O)N[C@@H](CCCNC(=N)N)C(=O)N[C@@H](CCC(N)=O)C(=O)N[C@@H](CCC(N)=O)C(N)=O)[C@@H](C)CC)[C@@H](C)CC)[C@@H](C)O)[C@@H](C)O)C(C)C)C(C)C` [melittin], in data set [2], the “cytotoxicity in cancer and normal cells” value is recorded as “high cytotoxicity”. For the same molecule, the concentration showing cytotoxicity in data set [3] and in data set [4] was at least 8000 ng/mL each time. For the same molecule, the “concentration showing hemolytic activity” value in data set [5] is “exceeding 8 μg/mL”.
